According to patent US7504517B2, “Kv1.5 potassium channel inhibitors” (Wyeth, priority 2006, dated 2009):
Structures can show the parent of a compound that is named as a salt.

Target: T1, Kv1.5 (Homo sapiens, UniProt P22460)
T1 construct: expressed in transfected cells; host or cells: HEK or LTK- cells
Assay: Kv1.5 Patch Clamp EP
Format: cell-based
Conditions: 1.0 μM, single point; whole cell patch clamp, Kv1.5 stably over expressed in HEK or LTK- cells
Experimental: The external solution is standard Tyrodes solution. […] Inhibition was measured at the end of the 1 second pulses and expressed relative to controls. Initial Kv1.5 inhibition is estimated by single point determinations done at 1 μM.

T1 sequence (P22460 whole entry): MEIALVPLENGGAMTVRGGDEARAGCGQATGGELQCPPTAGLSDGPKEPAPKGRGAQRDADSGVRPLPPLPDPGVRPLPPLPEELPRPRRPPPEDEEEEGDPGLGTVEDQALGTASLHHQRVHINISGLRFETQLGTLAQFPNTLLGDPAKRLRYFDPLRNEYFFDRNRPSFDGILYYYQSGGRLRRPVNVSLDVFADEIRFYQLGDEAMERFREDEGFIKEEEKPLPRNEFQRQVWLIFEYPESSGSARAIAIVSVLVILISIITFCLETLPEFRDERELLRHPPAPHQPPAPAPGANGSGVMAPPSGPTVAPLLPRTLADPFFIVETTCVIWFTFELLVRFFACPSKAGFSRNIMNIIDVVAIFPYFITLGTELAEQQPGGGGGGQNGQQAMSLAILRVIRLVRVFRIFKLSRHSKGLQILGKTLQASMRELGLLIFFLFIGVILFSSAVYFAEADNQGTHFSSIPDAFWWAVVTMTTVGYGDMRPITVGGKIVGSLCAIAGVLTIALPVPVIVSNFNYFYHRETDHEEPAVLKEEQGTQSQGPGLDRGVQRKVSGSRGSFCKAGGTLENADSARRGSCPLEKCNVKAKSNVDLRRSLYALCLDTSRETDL

inhibition at 1 µM | Kv1.5% inhibition @ 1.0 μM | Compound
46% |  | COc1ccc(CCN2C(=O)N(N)CC2c2ccc(C(C)(C)C)cc2)cc1 (stereo not shown) [Compound 2, 1-Amino-4-[4-(tert-butyl)phenyl]-3-[2-(4-methoxyphenyl)ethyl]-2-imidazolidinone]
13% |  | COc1ccc(CCCN2C(=O)N(N)CC2c2ccc(OC)cc2)cc1 (stereo not shown) [Compound 3, 1-Amino-4-(4-methoxyphenyl)-3-[3-(4-methoxyphenyl)propyl]-2-imidazolidinone]
36% |  | COc1ccc(CCN2C(=O)N(N)CC2c2ccc(OC(F)F)cc2)cc1 (stereo not shown) [Compound 5, 1-Amino-3-[2-(4-methoxyphenyl)ethyl]-4-(4-difluoromethoxyphenyl)-2-imidazolidinone 4-methylbenzenesulfonic acid salt]
 | 28% | COc1ccc(CCN2C(=O)N(NS(C)(=O)=O)CC2c2ccc(OC(C)C)cc2)cc1 (stereo not shown) [Compound 14, 1-(Methylsulfonylamino)-3-[2-(4-methoxyphenyl)ethyl]-4-[(4-isopropyloxy)-phenyl]-2-imidazolidinone]
46% |  | COc1ccc(CCN2C(=O)N(NS(C)(=O)=O)CC2c2ccc3c(c2)OCO3)cc1 (stereo not shown) [Compound 15, 1-(Methylsulfonylamino)-3-[2-(4-methoxyphenyl)ethyl]-4-(benzo[1,3]dioxol-5-yl)-2-imidazolidinone]
48% |  | COc1ccc(CCN2C(=O)N(NS(C)(=O)=O)CC2c2ccc3c(c2)OC(F)(F)O3)cc1 (stereo not shown) [Compound 16, 1-(Methylsulfonylamino)-3-[2-(4-methoxyphenyl)ethyl]-4-(2,2-difluorobenzo-[1,3]dioxol-5-yl)-2-imidazolidinone]
27% |  | COc1ccc(CN2C(=O)N(NS(C)(=O)=O)CC2c2ccc(C3CC3)cc2)cc1 (stereo not shown) [Compound 19, 1-(Methylsulfonylamino)-3-[(4-methoxyphenyl)methyl]-4-(4-cyclopropylphenyl)-2-imidazolidinone]
30% |  | COc1ccc(CCN2C(=O)N(NS(C)(=O)=O)CC2c2ccc(C(F)(F)F)cc2)cc1 (stereo not shown) [Compound 22, 1-(Methylsulfonylamino)-3-[2-(4-methoxyphenyl)ethyl]-4-(4-trifluoromethyl-phenyl)-2-imidazolidinone]
42% |  | COc1ccc(CCN2C(=O)N(NS(=O)(=O)CC#N)CC2c2ccc(OC)cc2)cc1 (stereo not shown) [Compound 41, 1-(Cyanomethylsulfonylamino)-3-[2-(4-methoxyphenyl)ethyl]-4-[(4-methoxy)-phenyl]-2-imidazolidinone]
40% |  | COc1ccc(C2CN(NS(C)(=O)=O)C(=O)N2CCCc2ccccc2)cc1 (stereo not shown) [Compound 46, 1-(Methylsulfonylamino)-3-(3-phenylpropyl)-4-(4-methoxyphenyl)-2-imidazolidinone]
39% |  | COc1ccc(CCN2C(=O)N(NS(=O)(=O)CC(=O)NC3CC3)CC2c2ccc(OC)cc2)cc1 (stereo not shown) [Compound 56, 1-[[2-(Cyclopropylamino)-2-oxoethyl]sulfonylamino]-3-[2-(4-methoxyphenyl)-ethyl]-4-(4-methoxyphenyl)-2-imidazolidinone]
26% |  | COc1ccc(CCN2C(=O)N(NS(=O)(=O)c3cccnc3)CC2c2ccc(OC)cc2)cc1 (stereo not shown) [Compound 62, 1-[(Pyridin-3-yl)sulfonylamino]-3-[2-(4-methoxyphenyl)ethyl]-4-(4-methoxyphenyl)-2-imidazolidinone]
22% |  | COc1ccc(CCN2C(=O)N(NC(N)=O)CC2c2ccc(C)c(C)c2)cc1 (stereo not shown) [Compound 70, {2-Oxo-3-[2-(4-methoxyphenyl)ethyl]-4-(3,4-dimethylphenyl)-imidazolidin-1-yl}-urea]
20% |  | COc1ccc(CCN2C(=O)N(NCC3CC3)CC2c2ccc(C)c(C)c2)cc1 (stereo not shown) [Compound 86, 1-(Cyclopropylmethylamino)-3-[2-(4-methoxyphenyl)ethyl]-4-(3,4-dimethylphenyl)-2-imidazolidinone]
46% |  | COc1ccc(CCN2C(=O)N(NCc3ccccn3)CC2c2ccc(C)c(C)c2)cc1 (stereo not shown) [Compound 93, 1-[(Pyridin-2-ylmethyl)amino]-3-[2-(4-methoxyphenyl)ethyl]-4-(3,4-dimethylphenyl)-2-imidazolidinone]
43% |  | COc1ccc(CCN2C(=O)N(NCc3ccncc3)CC2c2ccc(C(C)(C)C)cc2)cc1 (stereo not shown) [Compound 95, 1-[(Pyridin-4-ylmethyl)amino]-3-[2-(4-methoxyphenyl)ethyl]-4-(4-(tert-butyl)phenyl)-2-imidazolidinone]
6% |  | COc1ccc(CCN2C(=O)N(NS(=O)(=O)CC(=O)OCC3c4ccccc4-c4ccccc43)CC2c2ccc(C3CC3)cc2)cc1 (stereo not shown) [Compound 102, 1-[[2-(9H-fluoren-9-ylmethoxy)-2-oxoethyl]sulfonylamino]-3-[2-(4-methoxyphenyl)ethyl]-4-(4-cyclopropylphenyl)-2-imidazolidinone]

inhibition at 1 µM | Kv1.5% inhibition @ 1.0 μM | Compound
7% |  | COc1ccc(CCN2C(=O)N(N)CC2c2ccc(OC(F)(F)F)cc2)cc1 (stereo not shown) [Compound 110, 1-amino-3-[2-(4-methoxyphenyl)ethyl]-4-[4-(trifluoromethoxy)phenyl]imidazolidin-2-one]
8% |  | COc1ccc(CCN2C(=O)N(N3CCNCC3)CC2c2ccc(C(C)(C)C)cc2)cc1 (stereo not shown) [Compound 112, 4-(4-tert-butylphenyl)-3-[2-(4-methoxyphenyl)ethyl]-1-piperazin-1-ylimidazolidin-2-one]
5% |  | CCOc1ccc(CCN2C(=O)N(NS(C)(=O)=O)CC2c2ccc(OC)cc2)cc1 (stereo not shown) [Compound 113, N-{3-[2-(4-ethoxyphenyl)ethyl]-4-(4-methoxyphenyl)-2-oxoimidazolidin-1-yl}methanesulfonamide]
5% |  | COc1ccc(CCN2C(=O)N(NS(=O)(=O)CC(N)=O)CC2c2ccc(OC)cc2)cc1 (stereo not shown) [Compound 115, 2-({4-(4-methoxyphenyl)-3-[2-(4-methoxyphenyl)ethyl]-2-oxoimidazolidin-1-yl}sulfamoyl)acetamide]
19% |  | CNC(=O)N1CCN(N2CC(c3ccc(C(C)(C)C)cc3)N(CCc3ccc(OC)cc3)C2=O)CC1 (stereo not shown) [Compound 117, 4-{4-(4-tert-butylphenyl)-3-[2-(4-methoxyphenyl)ethyl]-2-oxoimidazolidin-1-yl}-N-methylpiperazine-1-carboxamide]
9% |  | CN(C)CCOc1ccc(CCN2C(=O)N(NS(C)(=O)=O)CC2c2ccc(C(C)(C)C)cc2)cc1 (stereo not shown) [Compound 118, N-[4-(4-tert-butylphenyl)-3-(2-{4-[2-(dimethylamino)ethoxy]phenyl}ethyl)-2-oxoimidazolidin-1-yl]methanesulfonamide]
5% |  | COc1ccc(CCN2C(=O)N(NS(C)(=O)=O)CC2Cc2ccc(F)cc2)cc1 (stereo not shown) [Compound 120, N-{4-(4-fluorobenzyl)-3-[2-(4-methoxyphenyl)ethyl]-2-oxoimidazolidin-1-yl}methanesulfonamide]
7% |  | COc1ccc(CCN2C(=O)N(NCCn3ccnc3)CC2c2ccc(C(C)(C)C)cc2)cc1 (stereo not shown) [Compound 121, 4-(4-tert-butylphenyl)-1-{[2-(1H-imidazol-1-yl)ethyl]amino}-3-[2-(4-methoxyphenyl)ethyl]imidazolidin-2-one]
36% |  | COc1ccc(CCN2C(=O)N(NC(=O)Cc3cccnc3)CC2c2ccc(C3CC3)cc2)cc1 (stereo not shown) [Compound 122, N-{4-(4-cyclopropylphenyl)-3-[2-(4-methoxyphenyl)ethyl]-2-oxoimidazolidin-1-yl}-2-pyridin-3-ylacetamide]
25% |  | CCN(CC)c1ccc(CNN2CC(c3ccc(C(C)(C)C)cc3)N(CCc3ccc(OC)cc3)C2=O)cc1 (stereo not shown) [Compound 123, 4-(4-tert-butylphenyl)-1-{[4-(diethylamino)benzyl]amino}-3-[2-(4-methoxyphenyl)ethyl]imidazolidin-2-one]
38% |  | COc1ccc(CCN2C(=O)N(N3CCCS3(=O)=O)CC2c2ccc(C3CC3)cc2)cc1 (stereo not shown) [Compound 124, 4-(4-cyclopropylphenyl)-1-(1,1-dioxidoisothiazolidin-2-yl)-3-[2-(4-methoxyphenyl)ethyl]imidazolidin-2-one]
42% |  | COc1ccc(CCN2C(=O)N(NS(=O)(=O)CCN3CCOCC3)CC2c2ccc3c(c2)OCCO3)cc1 (stereo not shown) [Compound 125, N-{4-(2,3-dihydro-1,4-benzodioxin-6-yl)-3-[2-(4-methoxyphenyl)ethyl]-2-oxoimidazolidin-1-yl}-2-morpholin-4-ylethanesulfonamide]
46% |  | COc1ccc(CCCN2C(=O)N(NS(=O)(=O)CS(C)(=O)=O)CC2c2ccc(OC)cc2)cc1 (stereo not shown) [Compound 126, N-{4-(4-methoxyphenyl)-3-[3-(4-methoxyphenyl)propyl]-2-oxoimidazolidin-1-yl}-1-(methylsulfonyl)methanesulfonamide]
4% |  | COc1ccc(CCN2C(=O)N(N)CC2Cc2ccc(F)cc2)cc1 (stereo not shown) [Compound 129, 1-amino-4-(4-fluorobenzyl)-3-[2-(4-methoxyphenyl)ethyl]imidazolidin-2-one]
37% |  | COc1ccc(CCN2C(=O)N(N3CCN(C(=O)N(C)C)CC3)CC2c2ccc(C(C)(C)C)cc2)cc1 (stereo not shown) [Compound 130, 4-{4-(4-tert-butylphenyl)-3-[2-(4-methoxyphenyl)ethyl]-2-oxoimidazolidin-1-yl}-N,N-dimethylpiperazine-1-carboxamide]
3% |  | COc1ccc(CCN2C(=O)N(NS(=O)(=O)CC(=O)N(C)CC(=O)N(C)C)CC2c2ccc(C3CC3)cc2)cc1 (stereo not shown) [Compound 132, 2-(N-(4-(4-cyclopropylphenyl)-3-(4-methoxyphenethyl)-2-oxoimidazolidin-1-yl)sulfamoyl)-N-(2-(dimethylamino)-2-oxoethyl)-N-methylacetamide]
22% |  | COc1ccc(CCN2C(=O)N(NS(=O)(=O)Cc3cccnc3)CC2C2(c3ccccc3)CC2)cc1 (stereo not shown) [Compound 134, N-{3-[2-(4-methoxyphenyl)ethyl]-2-oxo-4-(1-phenylcyclopropyl)imidazolidin-1-yl}-1-pyridin-3-ylmethanesulfonamide]
